Counter-ions that a name gives are not always drawn. Like-named read-outs stand apart in the source and are kept apart here.
How the values were obtained:
[1] = oxidizing, 5 h
[2] = for total impurities relative to the clopidogrel base: alkaline, 1N NaOH, 5 h
Method: 50 mg of the respective salts were separately weighed into volumetric flasks (100 ml), and 2 ml of 1N NaOH were added. The flasks were then stored either at room temperature for 5 h or at 80° C. for 5 h. After the end of the particular experiment and, where appropriate, cooling to room temperature, 2 ml of 1N HCl were added to each flask, and the volume was made up to 100 ml with the mobile phase.

[3] = neutral, water, 5 h
[4] = solid stored at 80° C. for 20 h
Method: 50 mg of the respective salts were weighed separately into volumetric flasks (100 ml) and stored at 80° C. for 20 h.

[5] = acidic, 1N HCl, 5 h
[6] = Decrease in active ingredient content of adsorbates on storage at 40° or 60° C. and 75% relative humidity for 15 days; type: physicochemical
Description: The results are summarized in Table 5 below (content after 15 days (initial level standardized at 100%)).

[7] = overall, in particular at room temperature
[8] = 40° and 60° C., 75% relative humidity, 15 days
[9] = room temperature, hydrochloride

## COC(=O)[C@H](c1ccccc1Cl)N1CCc2sccc2C1 [Clopidogrel Hydrochloride, clopidogrel hydrochloride, reference compound]
[1]; 3% H2O2, 80° C., hydrochloride
  total impurities relative to the clopidogrel base: 4.16%
[1]; 3% H2O2, room temperature, hydrochloride
  total impurities relative to the clopidogrel base: 1.83%
[2]; 80° C., hydrochloride
  total impurities relative to the clopidogrel base: 72.89%
[2]; [9]
  total impurities relative to the clopidogrel base: 1.86%
[3]; 80° C., hydrochloride
  total impurities relative to the clopidogrel base: 4.33%
[3]; [9]
  total impurities relative to the clopidogrel base: 1.84%
[4]; hydrochloride
  impurities by HPLC after heat: 32.43%
[5]; 80° C., hydrochloride
  total impurities relative to the clopidogrel base: 3.31%
[5]; [9]
  total impurities relative to the clopidogrel base: 1.86%

## COC(=O)[C@H](c1ccccc1Cl)N1CCc2sccc2C1 [Clopidogrel Hydrogensulfate, clopidogrel hydrogensulfate, reference compound]
[1]; 3% H2O2, 80° C.
  total impurities relative to the clopidogrel base: 3.50%
[1]; 3% H2O2, room temperature
  total impurities relative to the clopidogrel base: 0.33%
[2]; 80° C.
  total impurities relative to the clopidogrel base: 59.48%
[2]; room temperature
  total impurities relative to the clopidogrel base: 0.32%
[3]; 80° C.
  total impurities relative to the clopidogrel base: 1.63%
[3]; room temperature
  total impurities relative to the clopidogrel base: 0.40%
[4]
  impurities by HPLC after heat: 0.31%
[5]; 80° C.
  total impurities relative to the clopidogrel base: 2.96%
[5]; room temperature
  total impurities relative to the clopidogrel base: 0.32%

## Clopidogrel besylate [Pure (free) salt]
[6]; 40° C.
  content after 15 days (initial level standardized at 100%): 103.32%
[6]; 60° C.
  content after 15 days (initial level standardized at 100%): 66.48%

## clopidogrel benzenesulfonate [Clopidogrel Benzenesulfonate (Amorphous)]
[1]; 3% H2O2, 80° C.
  total impurities relative to the clopidogrel base: 2.94%
[1]; 3% H2O2, room temperature
  total impurities relative to the clopidogrel base: 0.83%
[2]; alkaline conditions
  stability compared with the hydrogensulfate and hydrochloride salts: considerably higher
[2]; 80° C.
  total impurities relative to the clopidogrel base: 25.04%
[2]; room temperature
  total impurities relative to the clopidogrel base: 0.64%
[3]; 80° C.
  total impurities relative to the clopidogrel base: 3.01%
[3]; room temperature
  total impurities relative to the clopidogrel base: 0.85%
[4]
  impurities by HPLC after heat: 11.52%
[5]; 80° C.
  total impurities relative to the clopidogrel base: 2.36%
[5]; room temperature
  total impurities relative to the clopidogrel base: 0.64%

## clopidogrel benzenesulfonate [Clopidogrel Benzenesulfonate (Crystalline)]
[7]
  stability compared with clopidogrel hydrogensulfate: more stable
[2]; 80° C.
  total impurities relative to the clopidogrel base: 28.05%
[2]; room temperature
  total impurities relative to the clopidogrel base: 0.14%
[3]; 80° C.
  total impurities relative to the clopidogrel base: 4.18%
[3]; room temperature
  total impurities relative to the clopidogrel base: 0.19%
[4]
  impurities by HPLC after heat: 4.52%
[5]; 80° C.
  total impurities relative to the clopidogrel base: 2.76%
[5]; room temperature
  total impurities relative to the clopidogrel base: 0.14%
[8]
  stability (decrease in content) compared with hydrogensulfate and hydrochloride: best stability

From patent US20050203122A1, “Benzenesulfonic acid salts of clopidogrel, methods for preparing same, and pharmaceutical formulations thereof” (Helm AG, priority 2003, published 2005)
